Test results reported in patent US12016831B2, “Polidocanol for use as immunomodulating agent” (priority 2018, dated 2024).

Key:
Type in all cases: in vivo, human
[1] = tested on: patients suffering from venous insufficiency from minor to severe; experiment: Likert survey on the "inflammatory" state in treated subjects
Procedure: A commercially available polidocanol solution (Atossisclerol®) was diluted to 0.05% with a physiological saline solution. A 1.4% sodium bicarbonate solution was then added in order to obtain a final concentration of 0.06%. […] To the questions on the quality of life, 10 more specific questions were added in order to assess possible variations of the “inflammatory” state (n=100 patients) after the treatment. The survey was based on the indications of: “Evaluation by Likert-type scale 4-point (0-absent, 1-moderate, 2-severe and 3-very severe)” Elleuch et al. Adv Ther. 2016 September; 33(9):1536-49. […] The survey was tailored on the Likert scale and aimed at evaluating the reduction of a number of symptoms related to chronic phlogosis, such as arthrosic or arthritis manifestations (both generic and autoimmune) with particular reference to articular mobility and pain, in subjects not suffering from full-blown diseases and apparently normal. The answers were indexed according to a scale from 0 to 3 (or from 0 to 2). Table 1 summarizes the percent individuals reporting an improvement of 50% after 4 or 15 treatments according to the invention, by self-assessment according to the Liked scale described above, for each of the following sign or symptom: […]

[2] = tested on: patients with C2 CEAP Class and bearing lower limbs varices; experiment: Venous refilling time measurement via photoplethysmography (FPG); conditions: for venous refilling time (VRT): Diluted Polidocanol Group
Text: The results were confirmed by photoplethysmography in a limited number of patients (n=20) wherein the measurement of venous refilling registered and examined, compared to the beginning of the treatment (after at least 4 sessions), has evidenced an increase of the peripheral venous refilling time in 17 out of 20 cases, indicating a plausible increase of venous resistance, i.e. a reduction of the peripheral reticulo-capillary bed or anyway of the superficial venous system. • 9. Improvement of the so-called “cellulitis”. The results were as follows:
40 patients with C2 CEAP Class and bearing lower limbs varices were examined via photoplethysmography exam with a Photoplethysmograph with Light Reflection Rheography/1-Channel (Vasoquant 1000 D-Ppg), they were divided into two homogeneous groups wherein the venous refilling time was measured before and after the hemodynamic therapy.
In the Diluted Polidocanol Group the hemodynamic therapy was followed after 30 days by sclerosing treatment with diluted polidocanol, prepared as described in example 1. In the Basal Group, after hemodynamic therapy no further treatment was carried out.
In the Basal Group of 20 patients, measurements of the refilling time of the superficial veins (SV) via photoplethysmography (FPG) exam were carried out at time zero, at time 1 (1 month) after hemodynamic (surgical) therapy on the varices, and at time 6 (6 months) without any further treatment.
In the Diluted Polidocanol Group of 20 patients, measurements of the refilling time of the SV via FPG were carried out at time zero, at 1 month after hemodynamic (surgical) therapy on the varices, and at time 6 (6 months) after 3-4 sessions of sclerotherapy with the method of the invention.

[3] = tested on: individuals over 70 years old with a peripheral venous insufficiency; experiment: Serum CRP levels in individuals over 70 years old with osteoarticular problems; conditions: for CRP level: T2 (8 days)
Procedure: CRP levels in serum samples of individuals over 70 years old, chronically affected by osteoarticular problems, with or without pain, was also measured. CRP levels were measured within a group of 30 people, with a peripheral venous insufficiency. The subjects (23 females, 7 males) underwent sclerotherapy according to the invention. Then, CRP levels were measured at time 0 (beginning of treatment) at T1 (24 hours after treatment) and at T2 (8 days after treatment).

[4] = tested on: subject with psoriasis; experiment: Skin rashes in a subject with psoriasis after a single treatment; conditions: pictures at T=0 and after 30 days (FIG. 3)
Procedure: FIG. 3. Treatment of peripheral venous insufficiency in a subject with psoriasis. The subject was treated with a single dose of diluted polidocanol 0.1%. Pictures were taken at T=0 (panel A) and after 30 days (panel B).

[5] = % of patients, n=100, after at least 4-5 treatments
[6] = after several treatments (12-14)
[7] = compared to the previous year, n=100
[8] = up to 2 months after the treatment, n=100

Polidocanol [diluted polidocanol]
1. Articular mobility, % individuals reporting an improvement of 50% ([1]; 4 treatments, 100 individuals): 78% | 2. Reduction of pain, % individuals reporting improvement ([1]; 4 treatments, 100 individuals): 68% | 3. Reduction of symptoms, % individuals reporting improvement ([1]; 4 treatments, 100 individuals): 30% | 4. Skin trophism, % individuals reporting improvement ([1]; 4 treatments, 100 individuals): 87% | 5. Hair, % individuals reporting improvement ([1]; 4 treatments, 100 individuals): 90% | 6. Reduction of infections, % individuals reporting improvement ([1]; 4 treatments, 100 individuals): 70% | 7. Feeing of wellness, % individuals reporting improvement ([1]; 4 treatments, 100 individuals): 30% | 8. Feeling of lightness (lower limbs), % individuals reporting improvement ([1]; 4 treatments, 100 individuals): 70% | 9. Improvement of "cellulitis", % individuals reporting improvement ([1]; 4 treatments, 100 individuals): 54% | 10. Improvement of sleep-wake rythm, % individuals reporting improvement ([1]; 4 treatments, 100 individuals): 30% | Don't feel stopping treatment, % individuals ([1]; 4 treatments, 100 individuals): 26% | 1. Articular mobility, % individuals reporting an improvement of 50% ([1]; 15 treatments, 200 individuals): 90% | 2. Reduction of pain, % individuals reporting improvement ([1]; 15 treatments, 200 individuals): 82% | 3. Reduction of symptoms, % individuals reporting improvement ([1]; 15 treatments, 200 individuals): 60% | 4. Skin trophism, % individuals reporting improvement ([1]; 15 treatments, 200 individuals): 98% | 5. Hair, % individuals reporting improvement ([1]; 15 treatments, 200 individuals): 95% | 6. Reduction of infections, % individuals reporting improvement ([1]; 15 treatments, 200 individuals): 85% | 7. Feeing of wellness, % individuals reporting improvement ([1]; 15 treatments, 200 individuals): 70% | 8. Feeling of lightness (lower limbs), % individuals reporting improvement ([1]; 15 treatments, 200 individuals): 98% | 9. Improvement of "cellulitis", % individuals reporting improvement ([1]; 15 treatments, 200 individuals): 86% | 10. Improvement of sleep-wake rythm, % individuals reporting improvement ([1]; 15 treatments, 200 individuals): 56% | Don't feel stopping treatment, % individuals ([1]; 15 treatments, 200 individuals): 56% | Feeling of lightness in the lower limbs, 0: no variations ([1]; % of patients, n=100): 2% | Feeling of lightness in the lower limbs, 1: lighter limbs ([1]; % of patients, n=100): 70% | Feeling of lightness in the lower limbs, 2: lighter limbs and no oedema in the evenings ([1]; % of patients, n=100): 28% | Improvement of "cellulitis", 1: lighter limbs ([1]; % of patients, n=100): 54% | Improvement of "cellulitis", 2: lighter limbs and no oedema in the evenings ([1]; % of patients, n=100): 36% | Improvement of skin trophism, 0: no variations ([1]; % of patients, n=100): 5% | Improvement of the hair trophism, results positive ([1]; % of patients, n=100): 90% | Improvement of the sleep-wake rhythm, 0: no variations ([1]; % of patients, n=100): 63% | Improvement of the sleep-wake rhythm, 1: I don't know: maybe ([1]; % of patients, n=100): 30% | Improvement of the sleep-wake rhythm, 2: I'm sleeping better and wake-up more rested ([1]; % of patients, n=100): 7% | Improvement of the so-called "cellulitis", 0: no variations ([1]; % of patients, n=100): 10% | Reduction of pain related to chronic inflammatory events, 0: no variations ([1]; % of patients, n=100): 20% | Reduction of pain, 1: 20% reduction of pain-related symptoms ([1]; % of patients, n=100): 12% | Reduction of pain, 2: 50% reduction of pain-related symptoms ([1]; % of patients, n=100): 68% | Reduction of pain, 3: 70% reduction of pain-related symptoms ([1]; % of patients, n=100): 0% | Skin trophism, 1: slight improvement of the skin elasticity and of the trophism at the touch in the lower limbs ([1]; % of patients, n=100): 87% | Skin trophism, 2: slight improvement of the skin elasticity and of the trophism at the touch in the whole body ([1]; % of patients, n=100): 60% | Skin trophism, 3: improvement extended to the skin of the face ([1]; % of patients, n=100): 16% | Articular mobility, 0: no variations [1, 5]: 13% | Articular mobility, 1: 20% mobility improvement [1, 5]: 7% | Articular mobility, 2: 50% mobility improvement [1, 5]: 78% | Articular mobility, 3: 70% mobility improvement [1, 5]: 2% | cases with improved skin elasticity and smoother skin also in the face [1, 6]: 16% | cases with improved skin elasticity and smoother skin in general [1, 6]: 60% | Reduction of infective events, 0: no variations [1, 7]: 18% | Reduction of infective events, 1: maybe less infective events [1, 7]: 12% | Reduction of infective events, 2: definitely significant reduction [1, 7]: 70% | Reduction of symptoms, 1: 20% attenuation of manifestations related to skin and articular mobility ([1]; number of patients, n=12): 5 N. | Reduction of symptoms, 2: 50% attenuation of manifestations related to skin and articular mobility ([1]; number of patients, n=12): 4 N. | Reduction of symptoms, 3: 70% attenuation of manifestations related to skin and articular mobility ([1]; number of patients, n=12): 1 N. | Reduction of symptoms of chronic degenerative pathologies of immune and inflammatory genesis, 0: no variations ([1]; number of patients, n=12 (e.g. psoriasis, rheumatoid arthritis)): 2 N. | Feeling of well-being, 0: no variations [1, 8]: 12% | Feeling of well-being, 1: I feel a bit better but I don't know [1, 8]: 32% | Feeling of well-being, 2: I feel a bit better in the sense that I have a feeling of well-being [1, 8]: 30% | Feeling of well-being, 3: life without the treatment is not the same, I feel the need to undergo treatment [1, 8]: 26% | patients with an improved index according to FPG exam ([2]; 6 months, after 3-4 sessions, 18 out of 20): 90% | venous refilling time (VRT) ([2]; 1 month, basal 24.3±6.78, p<0.05): 35.3 ± 4.14 s | venous refilling time (VRT) ([2]; 6 months, after 3-4 sessions, p<0.05 vs 1 month): 37.6 ± 4.13 s | refilling time at T6, Diluted Polidocanol Group vs basal group ([2]; T6 (6 months), basal group 35, p<0.001 Chi-squared test): 38 s | cases with increase of the peripheral venous refilling time ([2]; n=20, after at least 4 sessions, compared to the beginning of the treatment): 17 out of 20 | CRP levels vs time 0 ([3]; T1 (24 hours after treatment), 30 people over 70): did not show any variation | individuals showing a notable reduction of CRP levels ([3]; T2 (8 days after treatment), 27 out of 30): 90% | CRP level ([3]; case with starting CRP level 15 mg/l): 10 mg/L | CRP level ([3]; case with starting CRP level 18 mg/l): 9 mg/L | CRP level ([3]; case with starting CRP level 27 mg/l): 16 mg/L | skin rashes in a subject with psoriasis [4]: improve visibly the skin rashes
